Results: paper PMC9377253, “Antiproliferative and cytotoxic effects of sesquiterpene lactones isolated from Ambrosia artemisiifolia on human adenocarcinoma and normal cell lines” (Pharmaceutical Biology, 2022)

Legend:
[1] = MTT cytotoxicity assay (24 h), MRC-5; format: cell-based; conditions: human, MRC-5 embryonal lung fibroblast cells, 24 h incubation
Procedure: (§1) MRC-5 human embryonal lung fibroblast cell lines (ATCC CCL-171) were purchased from LGC Promochem, Teddington, UK. The cell line was cultured in Eagle’s Minimal Essential Medium (EMEM, containing 4.5 g/L glucose) supplemented with a non-essential amino acid mixture, a selection of vitamins and 10% heat-inactivated foetal bovine serum. The cell lines were incubated at 37 °C, in a 5% CO2, 95% air atmosphere.
(§2) MRC-5 non-cancerous human embryonic lung fibroblast and human colonic adenocarcinoma cell lines (doxorubicin-sensitive Colo 205 and multidrug-resistant Colo 320 colonic adenocarcinoma cells) were used to determine the effect of compounds on cell proliferation and growth. The effects of increasing concentrations of compounds on cell proliferation and growth were tested in 96-well flat-bottomed microtitre plates. The compounds were diluted in a volume of 100 μL of medium.
(§3) The adherent human embryonal lung fibroblast cells were seeded overnight and cultured in 96-well flat-bottomed microtitre plates prior to the assay, using EMEM supplemented with 10% heat-inactivated foetal bovine serum. The density of the cells was adjusted to 6 × 10^3 cells (antiproliferative assay) or 1 × 10^4 cells (cytotoxicity assay) in 100 μL per well, the cells were seeded for 24 h at 37 °C, 5% CO2, then the medium was removed from the plates containing the cells, and the dilutions of compounds (200 µL) previously made in a separate plate were added to the cells in.
(§4) The culture plates were incubated at 37 °C for 72 h (antiproliferative test) or 24 h (cytotoxicity test); at the end of the incubation period, 20 μL of MTT (thiazolyl blue tetrazolium bromide, Sigma, St. Louis, MO, USA) solution (from a stock solution of 5 mg/mL) were added to each well. After incubation at 37 °C for 4 h, 100 μL of sodium dodecyl sulphate (SDS) (Sigma) solution (10% in 0.01 M HCI) were added to each well and the plates were further incubated at 37 °C overnight. Cell growth was determined by measuring the optical density (OD) at 540/630 nm with Multiscan EX ELISA reader (Thermo Labsystems, Cheshire, WA, USA). Inhibition of the cell growth was determined according to the formula below: Inhibition %=100−[OD sample−OD medium control/OD cell control−OD medium control]×100
(§5) Results are expressed in terms of IC50, defined as the inhibitory dose that reduces the growth of the cells exposed to the tested compounds by 50%.

[2] = tested on: doxorubicin-sensitive Colo 205 colonic adenocarcinoma cells; experiment: MTT cytotoxicity assay (24 h), Colo 205; format: cell-based, human; conditions: Homo sapiens, COLO 205; MTT, 24 h incubation; read-out: Cytotoxicity IC50, Colo205
Procedure: (§6) Human colonic adenocarcinoma cell lines (Colo 205 doxorubicin-sensitive and Colo 320/MDR-LRP multidrug-resistant expressing ABCB1 (MDR1)-LRP), ATCC-CCL-220.1 (Colo 320) and CCL-222 (Colo 205) were purchased from LGC Promochem, Teddington, UK. The cells were cultured in RPMI 1640 medium supplemented with 10% heat-inactivated foetal bovine serum, 2 mM L-glutamine, 1 mM Na-pyruvate and 100 mM Hepes. The cell lines were incubated at 37 °C, in a 5% CO2, 95% air atmosphere. The semi-adherent human colon cancer cells were detached with Trypsin-Versene (EDTA) solution for 5 min at 37 °C.
as §2
(§7) In case of the colonic adenocarcinoma cells, the 2-fold serial dilutions of compounds were prepared in 100 μL of RPMI 1640, horizontally. The semi-adherent colonic adenocarcinoma cells were treated with Trypsin-Versene (EDTA) solution. The density of the cells was adjusted to 6 × 10^3 cells (antiproliferative assay) or 1 × 10^4 cells (cytotoxicity assay) in 100 μL of RPMI 1640 medium, and was added to each well, with the exception of the medium control wells. The final volume of the wells containing compounds and cells was 200 μL.
as §4, §5

[3] = tested on: multidrug-resistant Colo 320 colonic adenocarcinoma cells; experiment: MTT cytotoxicity assay (24 h), Colo 320; format: cell-based; conditions: Homo sapiens, COLO 320, 24 h, 24 h incubation, read-out: Cytotoxicity IC50, Colo320
Procedure: as §6, §2, §7, §4, §5

[4] = tested on: MRC-5 human embryonal lung fibroblast cell line; experiment: MTT antiproliferative assay (72 h), MRC-5; format: cell-based; conditions: Homo sapiens, MRC5, 72 h incubation
Procedure: as §1, §2, §3, §4, §5

[5] = tested on: doxorubicin-sensitive Colo 205 colonic adenocarcinoma cells; experiment: MTT antiproliferative assay (72 h), Colo 205; format: cell-based, human; conditions: Homo sapiens, COLO 205, 72 h incubation, read-out: Antiproliferative IC50, Colo205
Procedure: as §6, §2, §7, §4, §5

[6] = tested on: multidrug-resistant Colo 320 colonic adenocarcinoma cells; experiment: MTT antiproliferative assay (72 h), Colo 320; format: cell-based, human; conditions: Homo sapiens, COLO 320, 72 h, MTT, 72 h incubation; read-out: Antiproliferative IC50, Colo320
Procedure: as §6, §2, §7, §4, §5

[7] = tested on: multidrug-resistant Colo 320 colonic adenocarcinoma cells expressing the ABCB1 transporter; experiment: Checkerboard combination assay with doxorubicin; format: cell-based, human
Procedure: A checkerboard microplate method was applied to study the effect of drug interactions between the compounds and doxorubicin. The assay was carried out using multidrug-resistant Colo 320 colonic adenocarcinoma cells expressing the ABCB1 transporter. The final concentration of the chemotherapeutic agent doxorubicin used in the combination experiment was chosen in accordance with their antiproliferative activity previously determined. The dilutions of the chemotherapeutic drug were made in a horizontal direction in 100 μL, and the dilutions of the compounds vertically in the microtitre plate in 50 μL volume. The cells were re-suspended in culture medium and distributed into each well in 50 μL containing 6 × 10^3 cells each. The plates were incubated for 72 h at 37 °C in 5% CO2 atmosphere. The cell growth rate was determined after MTT staining. At the end of the incubation period, 20 μL of MTT (thiazolyl blue tetrazolium bromide, Sigma) solution (from a stock solution of 5 mg/mL) was added to each well. After incubation at 37 °C for 4 h, 100 μL of SDS (Sigma-Aldrich, St. Louis, MO, USA) solution (10% in 0.01 M HCl; Merck, Darmstadt, Germany) were added to each well and the plates were further incubated at 37 °C overnight. OD was measured at 540/630 nm with Multiscan EX ELISA reader (Thermo Labsystems, Cheshire, WA). Combination index (CI) values at 50% of the growth inhibition dose (ED50), were determined using CompuSyn software (ComboSyn, Inc., Paramus, NJ) to plot four to five data points to each ratio.

MCF-7 mp53 cells = tested on: MCF-7 mp53 cells; set-up: method as in Sturgeon et al. [2005]; conditions: ref Sturgeon et al. [2005]; cited from earlier work
[8] = MTT cytotoxicity assay (24 h), Colo 205; format: cell-based, human; conditions: human colonic adenocarcinoma cell lines versus MRC-5, cytotoxicity; read-out: selectivity index [SI], cytotoxicity
Procedure: as §6, §2, §7, §4, §5

[9] = tested on: Staphylococcus aureus ATCC 25923; experiment: Real-time ethidium bromide accumulation assay, S. aureus ATCC 25923; format: cell-based; conditions: EB accumulation, 60 min, positive control at 25 μM
Procedure: (§8) The impact of compounds on EB accumulation was determined by the automated EB method using a CLARIOstar Plus plate reader (BMG Labtech, Aylesbury, UK). First, the bacterial strain was incubated until it reached an OD of 0.6 at 600 nm [Escherichia coli AG100 is incubated in Luria–Bertani (LB) broth and Staphylococcus aureus ATCC 25923 is incubated in tryptic soy broth (TSB)]. The culture was washed with PBS (pH 7.4) and centrifuged at 13,000 × g for 3 min, the cell pellet was re-suspended in PBS. The compounds were added at ½ MIC concentration (in case of >100 the concentration is 100 µM) to PBS containing a non-toxic concentration of EB (2 µg/mL). […] Then, the plates were placed into the CLARIOstar plate reader, and the fluorescence was monitored at excitation and emission wavelengths of 525 and 615 nm every minute for 1 h on a real-time basis. From the real-time data, the activity of the compounds, namely the relative fluorescence index (RFI) of the last time point (60 min) of the EB accumulation assay, was calculated according to the following formula: RFI=(RFtreated – RFuntreated)/RFuntreated where RFtreated is the relative fluorescence (RF) at the last time point of EB retention curve in the presence of an inhibitor, and RFuntreated is the RF at the last time point of the EB retention curve of the untreated control having the solvent control (DMSO). […]

[10] = molecular target: T1, ABCB1 efflux pump (P-glycoprotein) (Homo sapiens, UniProt P08183); experiment: Rhodamine 123 retention by flow cytometry (ABCB1 inhibition); format: cell-based; conditions: rhodamine 123, Colo 320 vs Colo 205, at 0.2 µM
T1 construct: The colonic adenocarcinoma cells (the doxorubicin-sensitive Colo 205 and the multidrug-resistant Colo 320); CCL-222 (Colo 205); host or cells: Colo 320/MDR-LRP (multidrug-resistant, overexpressing ABCB1) and Colo 205 (sensitive) human colon adenocarcinoma cells
T1 sequence (P08183 whole entry): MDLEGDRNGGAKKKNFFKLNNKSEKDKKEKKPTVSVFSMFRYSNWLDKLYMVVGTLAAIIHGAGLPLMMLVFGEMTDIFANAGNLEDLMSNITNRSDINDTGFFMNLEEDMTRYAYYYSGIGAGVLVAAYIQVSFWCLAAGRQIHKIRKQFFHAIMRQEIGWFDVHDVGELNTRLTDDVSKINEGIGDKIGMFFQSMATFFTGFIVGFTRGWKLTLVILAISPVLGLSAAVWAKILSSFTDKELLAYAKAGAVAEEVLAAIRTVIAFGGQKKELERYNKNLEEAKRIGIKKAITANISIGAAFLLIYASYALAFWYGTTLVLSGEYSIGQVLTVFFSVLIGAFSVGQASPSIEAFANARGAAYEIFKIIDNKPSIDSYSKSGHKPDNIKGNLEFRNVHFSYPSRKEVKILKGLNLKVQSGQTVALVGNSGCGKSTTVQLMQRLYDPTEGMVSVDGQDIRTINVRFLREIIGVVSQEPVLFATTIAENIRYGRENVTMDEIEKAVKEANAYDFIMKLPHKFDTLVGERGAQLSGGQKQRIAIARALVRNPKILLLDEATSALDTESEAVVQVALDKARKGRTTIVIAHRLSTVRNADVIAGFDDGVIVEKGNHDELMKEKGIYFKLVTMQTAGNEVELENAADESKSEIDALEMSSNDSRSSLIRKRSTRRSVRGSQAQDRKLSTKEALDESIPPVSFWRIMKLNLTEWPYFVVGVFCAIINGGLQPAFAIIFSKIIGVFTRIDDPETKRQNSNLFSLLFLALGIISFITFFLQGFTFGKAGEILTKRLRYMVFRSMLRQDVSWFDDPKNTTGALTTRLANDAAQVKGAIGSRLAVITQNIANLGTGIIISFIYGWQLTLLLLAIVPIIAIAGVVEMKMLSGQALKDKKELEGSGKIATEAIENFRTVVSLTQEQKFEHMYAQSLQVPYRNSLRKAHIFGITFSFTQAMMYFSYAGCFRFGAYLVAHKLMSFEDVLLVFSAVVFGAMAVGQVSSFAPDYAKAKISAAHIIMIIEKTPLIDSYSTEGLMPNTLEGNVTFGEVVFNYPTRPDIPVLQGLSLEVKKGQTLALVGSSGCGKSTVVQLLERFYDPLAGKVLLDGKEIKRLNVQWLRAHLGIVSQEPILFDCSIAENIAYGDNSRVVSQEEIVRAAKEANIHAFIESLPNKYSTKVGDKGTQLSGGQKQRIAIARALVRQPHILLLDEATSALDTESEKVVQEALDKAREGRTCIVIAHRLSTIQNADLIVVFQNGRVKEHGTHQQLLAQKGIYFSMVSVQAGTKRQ
Procedure: This method is a fluorescence-based detection system which uses tariquidar as a reference inhibitor of the ABCB1 efflux pump (EP). The colonic adenocarcinoma cells (the doxorubicin-sensitive Colo 205 and the multidrug-resistant Colo 320) were adjusted to a density of 2 × 10^6/mL, re-suspended in serum-free RPMI 1640 medium and distributed in 0.5 mL aliquots into Eppendorf centrifuge tubes. The compounds were added at different concentrations (2 μM and 20 μM final concentrations, respectively), and the samples were incubated for 10 min at room temperature. […] The fluorescence intensity of the cell population was measured with a Partec CyFlow flow cytometer (Partec, Munster, Germany). […] The mean fluorescence intensity (%) was calculated for the treated MDR Colo 320 and sensitive Colo 205 cell lines as compared to the untreated cells. The fluorescence activity ratio (FAR) was calculated based on the following equation which relates the measured fluorescence values: FAR=Colo 320treated/Colo 320control/Colo 205treated/Colo 205control
The fluorescence dye, rhodamine 123 was used as a marker of the ABCB1 transporter activity to explore the potential inhibitory activity of the isolated compounds. Inside cells without overexpressing the P-glycoprotein, the rhodamine 123 accumulates and resulting in an increase in fluorescence intensity (λex = 490/λem = 525 nm). […]

Escherichia coli AG100 = conditions: EB accumulation, 60 min, positive control at 50 μM
Procedure: as §8

With `C=C1C(=O)O[C@@H]2[C@H]1CC[C@H](C)[C@@H]1CCC(=O)O[C@@]21C` [Compound 1, psilostachyin C] as the compound, how does the IC50 at 24 h [1] read?
The IC50 at 24 h was 52.7 ± 2.62 µM.

What about the IC50 [2] of the same compound?
The IC50 was 26.6 ± 0.48 µM.

What about the IC50 [3] of the same compound?
The IC50 was 28.71 ± 0.11 µM.

And the IC50 [4]?
The IC50 was 35.1 ± 4.03 µM.

And the IC50 [5]?
The IC50 was 15.6 ± 0.83 µM.

What about the IC50 [6] of the same compound?
The IC50 was 14.7 ± 0.82 µM.

And the Type of interaction ([7]; starting concentration 50 µM, ratio 11.6:1)?
Its Type of interaction is “Strong antagonism”.

And the Type of interaction ([7]; starting concentration 50 µM, ratio 23.2:1)?
Its Type of interaction is “Antagonism”.

And the Type of interaction ([7]; starting concentration 50 µM, ratio 46.4:1)?
Its Type of interaction is “Slight antagonism”.

What about the Type of interaction ([7]; starting concentration 50 µM, ratio 92.8:1) of the same compound?
Its Type of interaction is “Antagonism”.

And the Type of interaction ([7]; starting concentration 50 µM, ratio 185:1)?
Its Type of interaction is “Moderate antagonism”.

What about the Type of interaction ([7]; starting concentration 50 µM, ratio compound:doxorubicin 5.8:1) of the same compound?
Its Type of interaction is “Strong antagonism”.

And the “effect on mitosis of MCF-7 mp53 cells (G2 checkpoint inhibitors)” value (MCF-7 mp53 cells)?
Its value is “blocked MCF-7 mp53 cells in mitosis”.

What does the source list for `CC(=O)O[C@@H]1C[C@H]2[C@@H](C)CC[C@@H]3[C@@H](OC(=O)[C@@H]3C)[C@]2(C)C1=O` [Compound 2, acetoxydihydrodamsin]?
IC50 at 24 h [1]: 23.8 ± 1.06 µM; selectivity ratio at 24 h [8]: 3.11; IC50 [2]: 7.64 ± 0.37 µM; IC50 [3]: 10.8 ± 0.22 µM; IC50 [4]: 11 ± 0.31 µM; IC50 [5]: 5.14 ± 0.55 µM; IC50 [6]: 3.67 ± 0.35 µM; Type of interaction ([7]; starting concentration 15 µM, ratio 1.74:1): Antagonism; Type of interaction ([7]; starting concentration 15 µM, ratio 3.48:1): Antagonism; Type of interaction ([7]; starting concentration 15 µM, ratio 6.96:1): Antagonism; Type of interaction ([7]; starting concentration 15 µM, ratio 13.92.1): Antagonism; Type of interaction ([7]; starting concentration 15 µM, ratio 27.84:1): Moderate antagonism; Type of interaction ([7]; starting concentration 15 µM, ratio 55.68:1): Moderate antagonism

Which “RFI (relative fluorescence index)” value [9] does the source give for `COC(=O)[C@H]1[C@H]2C[C@@H]3c4[nH]c5cc(OC)ccc5c4CCN3C[C@H]2C[C@@H](OC(=O)c2cc(OC)c(OC)c(OC)c2)[C@@H]1OC` [reserpine] here?
Its value is 2.77.

Which “FAR value (fluorescence activity ratio)” value [10] does the source give for `COc1cc2c(cc1OC)CN(CCc1ccc(NC(=O)c3cc(OC)c(OC)cc3NC(=O)c3cnc4ccccc4c3)cc1)CC2` [tariquidar] here?
The value was 6.6.

For “carbonyl cyanide m-chlorophenylhydrazine [CCCP]”, which “RFI (relative fluorescence index)” value (Escherichia coli AG100) is on record?
Its value is 1.34.
